Where two headings read alike, the source gives them in different places.
Legend:
CYP3A4 [1] = target: T1, CYP3A4 (Homo sapiens, UniProt P08684); assay: DCF formation during CYP3A4-mediated metabolism of substrates (CYP3A4OR, DCFH-DA, NADPH)
Procedure: A fluorogenic probe 2′, 7′-dichlorodihydrofluorescin-diacetate (DCFH-DA) was added to a CYP-mediated reaction mixture containing a substrate, isoenzyme, and NADPH in Tris buffer (50 mM, pH 7.4). The substrate comprised testosterone. Metabolism of the substrate was examined by measurement of formation of the resulting metabolite (prior art method) and/or 2′, 7′-dichlorofluroescein (DCF; method in accordance with the present invention) which was converted from the DCFH-DA in the presence of the ROS produced by CYP-mediated reactions. Dextromethorphan and benzyloxyresorufin served as two additional substrates, and phenacetine (not a CYP3A4 substrate) as a negative control for CYP3A4 to test whether the method of the present invention could differentiate substrates with different metabolic rates or substrates from non-substrates.
Initial studies were conducted to examine whether DCF was formed during CYP-mediated oxidation using testosterone hydroxylation by CYP3A4OR. A reaction mixture (total 2 ml) comprising DCFH-DA (5.36 μM), CYP3A4OR (0.5 mg/ml) and testosterone (50 μM) in Tris buffer (50 mM, pH 7.4) was prepared. The reaction was initiated by adding NADPH (0.5 mM) and allowed to proceed at room temperature. The fluorescent spectra (emission and excitation) of DCF formed from the incubation was determined using LS50B Luminescence Spectrometer (Perkin-Elmer, Norwalk, Conn.). The spectra were compared with that of standard DCF in Tris buffer (50 mM, pH 7.4). An incubation mixture that contained all the components as described previously except for DCFH-DA served as a control.
(§1) Metabolism—After obtaining the maximal excitation and emission wavelengths of DCF under experimental conditions, the fluorescent signals at the maximal excitation and emission wavelengths were determined for incubation reactions that contained 12.5, 25, and 50 μM testosterone to test whether DCF formation was dependent on testosterone concentrations. The incubation conditions were the same as those described above. The formation of DCF at 10 min post addition of NADPH was calculated based on the standard curve of DCF. The standard curve covered DCF concentrations ranging from 0.05 to 50 nM. In parallel, DCF formation was determined with incubation reactions that were devoid of any of NADPH, CYP3A4 or testosterone.
DCFH-DA (1, 2.5 or 5 μM) was incubated with CYP3A4OR (0.5 mg/ml protein), testosterone (33 μM), and NADPH (1 mM) in Tris buffer. DCF concentration was measured at 5, 10, 20 and 30 min. The effect of NADPH concentration on DCF formation at 20 and 30 min was examined with incubations containing NADPH (0.5, 1 or 2 mM), testosterone (33 μM), and DCFH-DA (2.5 μM).
(§2) DCFH-DA (2.5 ,μM) was incubated with testosterone (5-40 4 μM), CYP3A4OR (0.5 mg/ml protein) and NADPH (1 mM) in Tris buffer. The total incubation volume was 1 ml. The formation of DCF was measured at 10 and 20 min post addition of NADPH. Triplicate incubations were performed at each concentration. A Michaelis-Menten function was used to fit to DCF formation rate vs. testosterone concentration data to obtain estimates of the relevant kinetic parameters using the nonlinear least-squares regression method (Winnonlin Scientific Consulting Co., Apex, N.C.). Parallel experiments were conducted to obtain the kinetic parameters based on measurement of 6β-OH testosterone, a specific CYP3A4-mediated metabolite of testosterone, with the HPLC-UV method. The concentration range of testosterone used for the HPLC-UV method was 10 to 75 μM.
Dextromethorphan (2-100 μM), benzyloxyresorufin (5-100 μM), or phenacetin (48 μM) was incubated with CYP3A4OR (0.5 or 1 mg/ml), DCFH-DA (2.5 μM) and NADPH (1 mM) in Tris buffer. In the case of benzyloxyresorufin, pluronic F-68 (2%, 5 μl) was added to the reaction mixture (Crespi et al., Ana. Biochem. 248:188-190). DCF formation was measured at timed intervals.

CYP3A4 [2] = target: T1, CYP3A4; conditions: Crespi et al., Anal. Biochem. 248:188-190 (1997); cited from earlier work
CYP3A4 [3] = target: T1, CYP3A4; assay: HPLC monitoring of potential phenacetin metabolites after incubation with CYP3A4OR; format: in vitro ADME; set-up: Glaxo Wellcome Inc. (gift); conditions: phenacetin 92 μM; CYP3A4OR 0.5 or 1 mg/ml; NADPH 1 mM; 10 or 30 min
Procedure: Briefly, acetonitrile (0.4 ml) was added to a reaction mixture (0.5 ml) of phenacetin as described previously. The resultant solution was mixed and centrifuged (15,000×3 min). An aliquot (100 μl) of the supernatant was injected to an Advantage 100 5 micron C18 column (4.6×250 mm, Thomas Liquid Chromatography). The mobile phase comprised CH3CN and H2O with a gradient from 1 to 99% CH3CN over 20 min at a flow rate of 1 ml/min. Phenacetin and its potential metabolites were monitored at 244 nm.
Potential metabolites of phenacetin were monitored by HPLC. […] Phenacetin (92 μM) was incubated with CYP3A4oR (0.5 or 1 mg/ml) and NADPH (1 mM) for 10 or 30 min. Incubation in the absence of NADPH was used as control.

CYP3A4 [4] = target: T1, CYP3A4; assay: 6β-OH testosterone formation during CYP3A4-mediated testosterone metabolism, HPLC-UV method; conditions: recombinant CYP3A4OR
Procedure: as §1
as §2, with “Parallel experiments were conducted to obtain the kinetic parameters based on measurement of 6β-OH testosterone, a specific CYP3A4-mediated metabolite of testosterone, with the HPLC-UV method. The concentration range of testosterone used for the HPLC-UV method was 10 to 75 μM.” left out

CYP1A2 = target: T2, CYP1A2 (Homo sapiens, UniProt P05177); conditions: 5 min
T2 sequence (P05177 1-516): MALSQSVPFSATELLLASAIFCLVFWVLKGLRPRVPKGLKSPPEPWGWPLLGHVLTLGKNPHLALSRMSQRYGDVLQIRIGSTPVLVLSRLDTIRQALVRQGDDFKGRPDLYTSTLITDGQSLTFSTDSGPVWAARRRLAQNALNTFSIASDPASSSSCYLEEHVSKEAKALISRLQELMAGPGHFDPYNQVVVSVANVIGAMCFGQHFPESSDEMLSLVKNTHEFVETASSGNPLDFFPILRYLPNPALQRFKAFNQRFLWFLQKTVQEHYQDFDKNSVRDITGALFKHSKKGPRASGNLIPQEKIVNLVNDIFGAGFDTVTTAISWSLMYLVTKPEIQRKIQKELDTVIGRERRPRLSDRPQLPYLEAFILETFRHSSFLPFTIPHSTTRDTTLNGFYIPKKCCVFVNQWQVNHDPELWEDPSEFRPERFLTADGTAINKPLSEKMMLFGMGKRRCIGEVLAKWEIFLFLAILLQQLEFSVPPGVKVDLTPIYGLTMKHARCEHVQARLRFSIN
Procedure: The effect of furafylline, a specific inhibitor of CYP1A2, on CYP1A2-mediated ethoxyresorufin metabolism was also examined. Furafylline (1 and 10 ,μM) was pre-incubated with CYP1A2 SUPERSOME™ (180 μg/ml protein) and NADPH (4 mM) in Tris buffer in a total volume of 0.5 ml for 10 min. Then ethoxyresorufin (5 μM), DCFH-DA (5 μM), and supplemental NADPH was added to the mixture. The reaction proceeded for 5 min.

[5] = substrate: CCOc1ccc2nc3ccc(=O)cc-3oc2c1; assay: DCF formation during CYP1A2-mediated metabolism of ethoxyresorufin (CYP1A2 SUPERSOME); format: in vitro ADME, human; conditions: other: CYP1A2 SUPERSOME 90 μg/ml; DCFH-DA 5 μM; 15 min
Procedure: (§3) Initial experiments were conducted to examine ethoxyresorufin concentration-dependent formation of DCF. Ethoxyresorufin (0.5, 5, 50 μM) was incubated with CYP1A2 SUPERSOME™ (sold under this trademark by Gentest Corp., Woburn, Mass.) (90 μg/ml protein), DCFH-DA (5 μM) and NADPH (1 mM). Formation of resorufin and DCF for the sample was measured at 8 and 10 min, respectively. The kinetic parameters then were obtained by incubating ethoxyresorufin (0.5-2.5 μM) with CYP1A2 SUPERSOME™ (90 μg/ml protein), DCFH-DA (5 μM), and NADPH (1 mM) for 5 min for measurement of resorufin formation and 15 min for measurement of DCF formation. Formation of DCF and resorufin was determined by fluorescence spectrophotometry. All experiments were performed in triplicate unless otherwise indicated.

[6] = substrate: CCOc1ccc2nc3ccc(=O)cc-3oc2c1; assay: Resorufin formation during CYP1A2-mediated metabolism of ethoxyresorufin (fluorescence spectrophotometry); format: in vitro ADME, human; conditions: other: CYP1A2 SUPERSOME 90 μg/ml; 5 min
Procedure: Resorufin, a common metabolite of ethoxyresorufin by CYP1A2 and of benzyloxyresorufin by CYP3A4, was measured by fluorescence spectrophotometry as described above for DCF, with excitation and emission wavelength at 570 and 583 nm, respectively.
as §3

[7] = read-out: Apparent Km by measurement of DCF formation, CYP3A4OR, DCFH-DA 2.5 μM, NADPH 1 mM, Michaelis-Menten fit

T1 sequence (P08684 whole entry): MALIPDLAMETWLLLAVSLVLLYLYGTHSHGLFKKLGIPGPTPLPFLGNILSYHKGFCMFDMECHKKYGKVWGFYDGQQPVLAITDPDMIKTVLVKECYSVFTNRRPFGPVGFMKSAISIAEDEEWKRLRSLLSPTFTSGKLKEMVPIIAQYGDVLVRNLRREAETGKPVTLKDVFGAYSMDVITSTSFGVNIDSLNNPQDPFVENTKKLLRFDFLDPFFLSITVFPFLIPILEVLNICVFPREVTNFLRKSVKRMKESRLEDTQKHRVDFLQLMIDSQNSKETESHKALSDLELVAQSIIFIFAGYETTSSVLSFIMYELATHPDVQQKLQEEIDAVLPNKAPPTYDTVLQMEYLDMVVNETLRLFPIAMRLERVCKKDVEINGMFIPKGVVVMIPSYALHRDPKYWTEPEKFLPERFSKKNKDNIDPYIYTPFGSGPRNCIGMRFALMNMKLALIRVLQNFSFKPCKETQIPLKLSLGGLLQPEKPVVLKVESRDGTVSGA

With `O=c1ccc2nc3ccc(OCc4ccccc4)cc3oc-2c1` [Benzyloxyresorufin, 7-benzyloxyresorufin] as the molecule, how does the “Apparent Vmax by measurement of DCF formation” value (CYP3A4 [1]; CYP3A4OR, DCFH-DA 2.5 μM, NADPH 1 mM, Michaelis-Menten fit) read?
Its value is 1.17 ± 0.14 pmol DCF/min/mg pr.

What about the Km (CYP3A4 [1]; [7]) of the same molecule?
The Km was 3.79 ± 2.34 µM.

What about the “Vmax for benzyloxyresorufin by CYP3A4” value (CYP3A4 [2]) of the same molecule?
Its value is 0.31 min⁻¹.

What does the source list for `CCOc1ccc(NC(C)=O)cc1` [Phenacetin, N-[4-ethoxyphenyl] acetamide]?
DCF formation from potential metabolism by CYP3A4 (in words) (CYP3A4 [1]; human, 48 μM, pH 7.4): ^aPhenacetin was not significantly metabolized by CYP3A4, and DCF formation was not sufficiently high to allow measurement.; metabolites found by prior art HPLC methods (CYP3A4 [3]): no detectable metabolites

For `C[C@]12CC[C@H]3[C@@H](CCC4=CC(=O)CC[C@@]43C)[C@@H]1CC[C@@H]2O` [Testosterone], which Km (CYP3A4 [1]; human, pH 7.4, Apparent Km by measurement of DCF formation, CYP3A4OR, DCFH-DA 2.5 μM, NADPH 1 mM, Michaelis-Menten fit) is on record?
The Km was 11.9 µM.

And the “Km by DCF measurement lower than Km by 6β-OH testosterone measurement” value (CYP3A4 [1]; ratio of the two Km values)?
Its value is “approximately 3.5 fold”.

And the Km (CYP3A4 [1]; [7])?
Its Km is 12 ± 3.58 µM.

What about the Km (CYP3A4 [4]) of the same molecule?
Its Km is 43.4 µM.

Which results are given for `Cc1nc2c([nH]1)c(=O)n(C)c(=O)n2Cc1ccco1` [furafylline]?
DCF formation (CYP1A2; 1 μM): 83.9 ±10.2 % of the control; DCF formation (CYP1A2; 10 μM): 73.9±7.0 % of the control

B1: CYP1A2 (Homo sapiens) (protein)
chain: MALSQSVPFSATELLLASAIFCLVFWVLKGLRPRVPKGLKSPPEPWGWPLLGHVLTLGKNPHLALSRMSQRYGDVLQIRIGSTPVLVLSRLDTIRQALVRQGDDFKGRPDLYTSTLITDGQSLTFSTDSGPVWAARRRLAQNALNTFSIASDPASSSSCYLEEHVSKEAKALISRLQELMAGPGHFDPYNQVVVSVANVIGAMCFGQHFPESSDEMLSLVKNTHEFVETASSGNPLDFFPILRYLPNPALQRFKAFNQRFLWFLQKTVQEHYQDFDKNSVRDITGALFKHSKKGPRASGNLIPQEKIVNLVNDIFGAGFDTVTTAISWSLMYLVTKPEIQRKIQKELDTVIGRERRPRLSDRPQLPYLEAFILETFRHSSFLPFTIPHSTTRDTTLNGFYIPKKCCVFVNQWQVNHDPELWEDPSEFRPERFLTADGTAINKPLSEKMMLFGMGKRRCIGEVLAKWEIFLFLAILLQQLEFSVPPGVKVDLTPIYGLTMKHARCEHVQARLRFSIN
notes: purchased Gentest Corp. (Woburn, Mass.)
With B1 as the molecule, how does the Km [5] read?
The Km was 3.46 ± 1.07 µM.

What about the Km [6] of the same molecule?
Its Km is 4.89 ± 1.71 µM.
